Entries after “also recorded” stand apart in the source; their conditions may differ.
Assays:
recombinant CaMKIIα = recombinant CaMKIIα (Homo sapiens, UniProt Q9UQM7); assay: ADP-Glo assay, syntide-II phosphorylation; format: biochemical; settings: fixed concentration of CaM, wide concentration span
GABAB receptors = settings: cited from earlier work
[1] = Body temperature recordings in mice; format: in vivo, mouse; settings: C57/B6 mice, i.p.; GHB 275 mg/kg, HOCPCA 175 mg/kg
CaMKIIα WT hub = molecular target: T1, CaMKIIα WT hub (Homo sapiens, UniProt Q9UQM7); assay: Thermal shift assay by differential scanning fluorimetry; format: binding; settings: saturating concentrations, pH 6
T1 sequence (Q9UQM7 345-475): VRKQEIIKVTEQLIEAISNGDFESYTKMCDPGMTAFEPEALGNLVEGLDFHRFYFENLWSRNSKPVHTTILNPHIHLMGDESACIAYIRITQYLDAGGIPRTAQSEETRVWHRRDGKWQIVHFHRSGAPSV

cortical neurons = assay: Glu/Gly excitotoxicity in cultured cortical neurons, LDH release; format: cell-based, mouse
[2] = molecular target: T2, CaMKIIα wild-type (WT) hub protein (Homo sapiens, UniProt Q9UQM7); assay: Intrinsic tryptophan fluorescence; format: binding; settings: increasing concentrations
T2 sequence (Q9UQM7 345-475): T1 sequence (Q9UQM7 345-475)

hippocampal neurons = assay: Glu excitotoxicity in cultured hippocampal neurons, live/dead staining; format: cell-based, mouse; settings: for Cell survival after Glu: Camk2a-/- neurons
[3] = system: mouse hippocampal slices (CA3–CA1); assay: Ex vivo LTP recordings in hippocampal slices; settings: bath application, 100 μM, 100 Hz induction
C57/B6 mice = assay: Photothrombotic stroke model of focal ischemia
[4] = system: CaMKIIα Thr286 autophosphorylation; assay: Thr286 autophosphorylation by Western blot in cultured cortical neurons; format: cell-based, mouse; settings: 1 h, HOCPCA 3 mM
[5] = molecular target: CaMKIIβ/γ/δ subtypes; CaMKIIα Δhub (Rattus norvegicus, UniProt P11275); format: binding; settings: HEK293T cells transiently expressing Δhub
[6] = system: CaMKIIβ/γ/δ subtypes; CaMKIIα Δhub; format: binding, rat; settings: heterologously expressed in HEK293T cells
[7] = system: CaMKIIα (mouse brain slices); assay: In vitro autoradiography on Camk2a and Camk2b +/+ and -/- mouse brain slices; format: binding
[8] = 175 mg/kg at 3, 6, 12 h poststroke

recombinant CaMKIIα, sequence (Q9UQM7 whole entry): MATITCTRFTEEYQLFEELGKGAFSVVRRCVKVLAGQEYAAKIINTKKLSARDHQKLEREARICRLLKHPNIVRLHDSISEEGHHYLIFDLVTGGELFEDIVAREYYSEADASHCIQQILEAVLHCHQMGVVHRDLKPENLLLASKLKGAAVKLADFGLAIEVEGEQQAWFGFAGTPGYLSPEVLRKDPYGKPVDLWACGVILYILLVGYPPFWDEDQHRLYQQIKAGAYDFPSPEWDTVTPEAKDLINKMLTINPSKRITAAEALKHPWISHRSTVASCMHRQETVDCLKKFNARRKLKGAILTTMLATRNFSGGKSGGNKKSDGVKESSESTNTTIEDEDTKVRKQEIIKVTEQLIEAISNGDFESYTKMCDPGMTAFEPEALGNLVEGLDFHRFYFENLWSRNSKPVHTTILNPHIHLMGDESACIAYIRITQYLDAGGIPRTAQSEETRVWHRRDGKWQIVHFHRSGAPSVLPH
CaMKIIβ/γ/δ subtypes; CaMKIIα Δhub (Rattus norvegicus, UniProt P11275), sequence (P11275 1-337, stated change not applied): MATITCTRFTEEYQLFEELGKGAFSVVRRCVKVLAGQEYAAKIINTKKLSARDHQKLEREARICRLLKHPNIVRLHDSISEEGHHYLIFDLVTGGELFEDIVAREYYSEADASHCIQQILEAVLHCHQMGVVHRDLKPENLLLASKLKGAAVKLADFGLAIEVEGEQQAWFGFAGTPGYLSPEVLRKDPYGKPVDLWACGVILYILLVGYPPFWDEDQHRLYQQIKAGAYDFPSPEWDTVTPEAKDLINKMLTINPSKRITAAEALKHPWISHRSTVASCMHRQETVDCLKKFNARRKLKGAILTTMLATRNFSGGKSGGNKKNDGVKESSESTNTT

O=C(O)CCCO [GHB, γ-hydroxybutyrate, reference compound]
Effect on syntide phosphorylation by CaMKIIα (recombinant CaMKIIα): no effect | Ki (GABAB receptors; GABAB receptors): 230 µM | Effect on body temperature [1]: strong hypothermia | maximum Tm increase (maximum ∆Tm) (CaMKIIα WT hub): 13 °C

O=C(O)C1=CC(O)CC1 (stereo not drawn) [HOCPCA, 3-hydroxycyclopent-1-enecarboxylic acid]
Effect on syntide phosphorylation by CaMKIIα (recombinant CaMKIIα): no effect | Affinity to native GABAB receptors (GABAB receptors; at 1 mM): no affinity; also recorded: lack affinity | Cell survival (LDH) (cortical neurons; 1 mM applied immediately or 30 min after Glu stimulation): did not have any effect | Cell death (LDH) (cortical neurons; applied 1 h after Glu stimulus, concentration dependent (0.1 to 3 mM)): significantly reduced cell death | Effect on body temperature [1]: no hypothermia | Quenching of Trp403 fluorescence [2]: not seen | mean recovery compared with the Glu-only condition (live/dead ratio) (hippocampal neurons; Camk2a+/+ neurons, trend, not significant): 18% | Cell survival after Glu (hippocampal neurons): neither tat-CN21 nor HOCPCA improved cell survival | Cell live/dead ratio (hippocampal neurons; FvB hippocampal cultures, 1 mM, 1 h poststimulation, 400 μM Glu): significantly increased | Long-term potentiation (LTP) [3]: did not inhibit | Forelimb asymmetry in the cylinder test (C57/B6 mice; [8]): improvements | Motor coordination, paw placement on grid-walking task (C57/B6 mice; [8]): improvements | reduction in infarct volume (C57/B6 mice; 175 mg/kg at 3, 6, and 12 h poststroke, measured 7 d poststroke, young male mice): 40 to 50% | Transport of neuroanatomical tracer biotinylated dextran amine (C57/B6 mice; 175 mg/kg i.p., 14 days post-stroke): reversal of the stroke-induced decrease | Compound action potentials (CAPs), corpus callosum (C57/B6 mice; 175 mg/kg single treatment 3 h poststroke, 14 d poststroke): 50 to 60 % of control | Treatment effect of single dose (C57/B6 mice; aged female mice, 175 mg/kg): significant treatment effects | Treatment effect of single dose (C57/B6 mice; young males, 90 mg/kg, 3 h poststroke): significant treatment effects | Thr286 autophosphorylation ([4]; Ca2+-stimulated conditions): did not affect | Thr286 autophosphorylation ([4]; basal conditions): did not affect | maximum Tm increase (maximum ∆Tm) (CaMKIIα WT hub): 15 °C

COc1ccc(S(=O)(=O)N(CCO)c2ccccc2CN(C)C/C=C/c2ccc(Cl)cc2)cc1 [KN93, reference compound]
Thr286 autophosphorylation ([4]; basal conditions): significant inhibition

[3H]C1(O)C=C(C(=O)O)CC1 (stereo not drawn) [[3H]HOCPCA]
Binding to CaMKIIα hub deletion mutant (Δhub) [5]: complete absence | Binding to CaMKIIβ/γ/δ subtypes [6]: no [^3H]HOCPCA binding was observed | Binding to brain slices from Camk2a-/- mice [7]: complete lack of binding | Binding to brain tissue of Camk2a+/+, Camk2b+/+ and Camk2b-/- mice [7]: intact binding

GRKKRRQRRRKRPPKLGQIGRSKRVVIEDDR [tat-CN21, reference compound]
Cell death (LDH) (cortical neurons; tat-CN21 control (10 μM)): significantly reduced cell death | Live/dead ratio after Glu (hippocampal neurons; Camk2a+/+ neurons): significantly improved | Cell survival after Glu (hippocampal neurons): neither tat-CN21 nor HOCPCA improved cell survival

KRPPKLGQIGRSKRVVIEDDR [CN21]
Effect on syntide phosphorylation by CaMKIIα (recombinant CaMKIIα): concentration-dependent inhibition
